The values below come from patent US5298522A, “6-chloro-5-fluoro-3-(2-thenoyl)-2-oxindole-1-carboxamide as an analgesic and anti-inflammatory agent while maintaining a normal urine protein/creatinine ratio” (Pfizer Inc., priority 1993, dated 1994).

Structures are written as SMILES.

One series is described as follows: Proteinuria in patients. The class given is in vivo, human. The settings on record: for induction of proteinuria: in some patients, dose not stated.
Series [1] has as its system carrageenin-induced rat-foot edema. Description: Carrageenin-induced rat-foot edema test. Format: in vivo, rats (adult, male, albino). Particulars: by gavage, one hour before carrageenin. The source says:
[Winter et al., Proc. Soc. Exp. Biol. Med., 111, 544, (1963)].
Unanesthetized, adult, male, albino rats of 150 g to 190 g body weight are numbered, weighed, and an ink mark placed on the right lateral malleolus. Each paw is immersed in mercury exactly to the ink mark. The mercury is contained in a glass cylinder, connected to a Statham Pressure Transducer. The output from the transducer is fed through a control unit to a microvoltameter. The volume of mercury displaced by the immersed paw is read. The drug is given by gavage. One hour after drug administration, edema is induced by injection of 0.05 ml of 1% solution of carrageenin into the plantar tissue of the marked paws. Immediately thereafter, the volume of the injected foot is measured. The increase in foot volume 3 hours after the injection of carrageenin constitutes the individual inflammatory response.
A general note: In the carrageenan paw model, swelling and tenderness develop within hours.

Series [2] is described as follows: Double blind, placebo controlled, crossover study, urine protein/creatinine ratio (Example 2). The class given is in vivo, human. The settings on record: 80 mg/day, four weeks. Here is the method: (§1) "Significant increase or decrease" for proteinuria effects is herein defined as an increase or decrease having statistical significance as determined by conducting an analysis of variance (ANOVA). First, a regression line is fitted to protein/creatinine (PC) ratio data for each patient and treatment period, and a slope is determined. The slope is then analyzed using an ANOVA to test for sequence, period and treatment effects, to determine if a difference exists between the control and treated groups.
(§2) Large amounts of creatinine and much smaller amounts of protein are normally excreted in the urine of normal human subjects, and a protein/creatinine ratio of approximately 0.05 to 0.1 is usually maintained.
Using a double blind, placebo controlled, crossover design, 6-chloro-5-fluoro-3-(2-thenoyl)-2-oxindole-1-carboxamide was administered to 25 patients at a dose level of 80 mg/day. Patients were randomized to receive either 6-chloro-5-fluoro-3-(2-thenoyl)-2-oxindole-1-carboxamide for four weeks followed by placebo for four weeks, or to receive placebo for four weeks followed by 6-chloro-5-fluoro-3-(2-thenoyl)-2-oxindole-1-carboxamide for four weeks. Patients could switch to the second leg of the treatment regimen earlier if symptoms became intolerable. […] Urine protein/creatinine ratio was determined at baseline and weekly during the study. […]

Series [3] deals with PBQ-induced abdominal stretching in mice. The series is described as follows: Blockage of abdominal stretching induced by 2-phenyl-1,4-benzoquinone (PBQ). Format: in vivo, mice (Carworth males, albino CF-1 strain). Particulars: oral, one hour before PBQ 2 mg/kg intraperitoneally. As to the method: The method is based on that of Siegmund et al., Proc. Soc. Exp. Biol. Med., 95, 729-731, (1957), as adapted for high throughput [see further Milne and Twomey, Agents and Actions, 10, 31-37, (1980)]. The mice used in these experiments are Carworth males, albino CF-1 strain, weighing 18-20 g. All mice are fasted overnight prior to drug administration and testing.
6-Chloro-5-fluoro-3-(2-thenoyl)-2-oxindole-1-carboxamide is dissolved or suspended in a vehicle consisting of ethanol (5%), emulphor 620 (a mixture of polyoxyethylene fatty acid esters, 5%) and saline (90%). This vehicle also served as control. Doses are on a logarithmic scale (i.e., . . . 0.32, 1.0, 3.2, […] . . . mg/kg), and are calculated from weights of the salt when applicable. The route of administration is oral, with concentrations varied to allow a constant dosage of 10 ml/kg of mouse. The aforesaid method of Milne and Towney is used to determine efficacy and potency. […] Individual mice are then immediately placed in a warmed lucite chamber, and, starting five minutes after PBQ administration, the number of abdominal constrictions during the subsequent 5 minutes are recorded. The degree of analgesic protection, Maximal Possible Effect (% MPE), is calculated on the basis of suppression of abdominal constriction relative to counts from concurrent control animals run on the same day. […]

The nature of series [4]: Double blind placebo-controlled study, urine protein/creatinine ratio (Example 1). Format: in vivo, human. Here is the method: as §1, §2
Using a double blind placebo-controlled design, 6-chloro-5-fluoro-3-(2-thenoyl)-2-oxindole-1-carboxamide was administered to 36 patients at dose levels of 40, 80, 160 and 320 mg, once daily. A single dose was given on day 1, followed by a seven day washout period, and then dosing was continued for a further 21 days. […] In addition, following the 2nd, 8th and 22nd dose; and 240 hours after the last dose, one 20 ml aliquot of urine, following the first am void but prior to the administration of study medication, was withdrawn for measurement of quantitative protein and creatinine.

Turning to `NC(=O)N1C(=O)C(C(=O)c2cccs2)c2cc(F)c(Cl)cc21` (stereo not shown) [6-Chloro-5-fluoro-3-(2-thenoyl)-2-oxindole-1-carboxamide], the induction of proteinuria result in the series “Proteinuria in patients” is given as “does not induce proteinuria”. Moreover, the anti-inflammatory activity result in series [1] is “possesses anti-inflammatory activity”. Further, the “change in urine protein/creatinine ratio during treatment” value in series [2] is recorded as “No significant changes”. In series [2] (crossover), the “urine protein/creatinine ratio, drug vs placebo treatment” value is “no significant differences”. Moreover, the analgesic activity entry in series [3] is “possess analgesic activity”. The proteinuria result in series [4] (320 mg/day) is “does not cause proteinuria”. Moreover, the “urine protein/creatinine ratio, drug treated groups vs placebo treated groups” value in series [4] (40, 80, 160 and 320 mg once daily, single dose, seven day washout, then further 21 days) was “no significant differences”.

Consider `NC(=O)N1C(=O)C(C(=O)c2cccs2)c2cc(Cl)ccc21` (stereo not shown) [5-chloro-3-(2-thenoyl)-2-oxindole-1-carboxamide], for which the patients with proteinuria in “Proteinuria in patients” (80 mg/day, within four weeks) is recorded as 10-15%. The course of proteinuria entry in the series “Proteinuria in patients” (80 mg/day, upon discontinuation of medication) was “non-progressive and reversible upon discontinuation of medication”. In “Proteinuria in patients”, the induction of proteinuria result is “induce non-progressive, reversible proteinuria in some patients”.
